Test results as given in PubChem BioAssay AID228 (DTP/NCI, 2004).
“And” between values parts separate entries of the source, which are not always exact repeats. Equal entries are not always repeated. Inconclusive results are not listed.

System: BDF1 mice, Friend leukemia sc, tumor weight T/C
Experiment: NCI In Vivo Anticancer Drug Screen. Data for tumor model Friend Virus Leukemia (Solid) (subcutaneous) in B6D2F1 (BDF1) mice
Conditions: endpoint: mean tumor weight, higher = larger tumour
Procedure: The antitumor activity of compounds was measured in mice bearing transplantable tumors. Survival or tumor size were measured and the results are expressed as the measurement made in the treated group (T) divided by the measurement made in the vehicle treated control group (C). The tumor model used in this assay is Friend Virus Leukemia (Solid) (subcutaneous) in B6D2F1 (BDF1) mice

[1] = dose: 10.0 mg/kg/injection, schedule: Q01DX011 (ip), vehicle: carboxymethylcellulose (CMC)
[2] = dose: 25.0 mg/kg/injection, schedule: Q01DX011 (ip), vehicle: carboxymethylcellulose (CMC)
[3] = dose: 62.0 mg/kg/injection, schedule: Q01DX011 (ip), vehicle: carboxymethylcellulose (CMC)
[4] = dose: 100.0 mg/kg/injection, schedule: Q01DX011 (ip), vehicle: carboxymethylcellulose (CMC)
[5] = dose: 125.0 mg/kg/injection, schedule: Q01DX011 (ip), vehicle: carboxymethylcellulose (CMC)
[6] = dose: 5.0 mg/kg/injection, schedule: Q01DX011 (ip), vehicle: carboxymethylcellulose (CMC)
[7] = dose: 18.0 mg/kg/injection, schedule: Q01DX011 (ip), vehicle: carboxymethylcellulose (CMC)
[8] = dose: 250.0 mg/kg/injection, schedule: Q01DX011 (ip), vehicle: carboxymethylcellulose (CMC)

In the case of OCC1OC(n2cnc3c(=S)nc[nH]c32)C(O)C1O (stereo not drawn), the T/C (dose: 0.1 mg/kg/injection, schedule: Q01DX011 (ip), vehicle: carboxymethylcellulose (CMC)) is reported as 82 % of control and 92 % of control, the T/C (dose: 0.25 mg/kg/injection, schedule: Q01DX011 (ip), vehicle: carboxymethylcellulose (CMC)) is reported as 45 % of control and the T/C [1] is reported as 54 % of control. The T/C (dose: 15.0 mg/kg/injection, schedule: Q01DX011 (ip), vehicle: carboxymethylcellulose (CMC)) was 1 % of control and 8 % of control, the T/C [2] was 17 % of control and the T/C (dose: 50.0 mg/kg/injection, schedule: Q01DX011 (ip), vehicle: carboxymethylcellulose (CMC)) was 13 % of control. The T/C [3] was 2 % of control, the T/C [4] was 8 % of control and the T/C [5] was 1 % of control.
In the case of O=C(Nc1ccc(C2=NCCCN2)cc1)c1ccc(C(=O)Nc2ccc(C3=NCCCN3)cc2)cc1, the T/C (dose: 0.75 mg/kg/injection, schedule: Q01DX011 (ip), vehicle: carboxymethylcellulose (CMC)) is reported as 121 % of control, the T/C (dose: 1.5 mg/kg/injection, schedule: Q01DX011 (ip), vehicle: carboxymethylcellulose (CMC)) is reported as 102 % of control and the T/C (dose: 3.0 mg/kg/injection, schedule: Q01DX011 (ip), vehicle: carboxymethylcellulose (CMC)) is reported as 44 % of control. For the same compound, the T/C (dose: 3.75 mg/kg/injection, schedule: Q01DX011 (ip), vehicle: carboxymethylcellulose (CMC)) was 75 % of control, the T/C [6] was 42 % of control and the T/C (dose: 6.0 mg/kg/injection, schedule: Q01DX011 (ip), vehicle: carboxymethylcellulose (CMC)) was 64 % of control. The T/C (dose: 7.5 mg/kg/injection, schedule: Q01DX011 (ip), vehicle: carboxymethylcellulose (CMC)) was 10 % of control.
NC1(C(=O)O)CCCC1 was tested, and the T/C (dose: 4.5 mg/kg/injection, schedule: Q01DX011 (ip), vehicle: carboxymethylcellulose (CMC)) was 95 % of control, the T/C (dose: 9.0 mg/kg/injection, schedule: Q01DX011 (ip), vehicle: carboxymethylcellulose (CMC)) was 89 % of control and the T/C [7] was 63 % of control. The T/C (dose: 36.0 mg/kg/injection, schedule: Q01DX011 (ip), vehicle: carboxymethylcellulose (CMC)) was 53 % of control.
O=c1c[n+](-c2ccccc2)[nH]o1 was tested, and the T/C (dose: 22.5 mg/kg/injection, schedule: Q01DX011 (ip), vehicle: carboxymethylcellulose (CMC)) was 89 % of control, the T/C (dose: 45.0 mg/kg/injection, schedule: Q01DX011 (ip), vehicle: carboxymethylcellulose (CMC)) was 76 % of control and the T/C (dose: 90.0 mg/kg/injection, schedule: Q01DX011 (ip), vehicle: carboxymethylcellulose (CMC)) was 74 % of control. The T/C (dose: 180.0 mg/kg/injection, schedule: Q01DX011 (ip), vehicle: carboxymethylcellulose (CMC)) was 78 % of control.
In the case of CCCCNc1ncnc2c1cnn2C, the T/C (dose: 4.0 mg/kg/injection, schedule: Q01DX011 (ip), vehicle: saline) is reported as 150 % of control, the T/C (dose: 16.0 mg/kg/injection, schedule: Q01DX011 (ip), vehicle: saline) is reported as 117 % of control and the T/C (dose: 31.0 mg/kg/injection, schedule: Q01DX011 (ip), vehicle: saline) is reported as 84 % of control.
In the case of CCCCCC(=O)O[C@]1(C(C)=O)CC[C@H]2[C@@H]3CCC4=CC(=O)CC[C@]4(C)[C@H]3CC[C@@]21C, the T/C (dose: 125.0 mg/kg/injection, schedule: Q01DX011 (sc), vehicle: steriod suspending solution) is reported as 173 % of control, the T/C (dose: 250.0 mg/kg/injection, schedule: Q01DX011 (sc), vehicle: steriod suspending solution) is reported as 166 % of control and the T/C (dose: 375.0 mg/kg/injection, schedule: Q01DX011 (sc), vehicle: steriod suspending solution) is reported as 156 % of control. The T/C (dose: 750.0 mg/kg/injection, schedule: Q01DX011 (sc), vehicle: steriod suspending solution) was 124 % of control.
CCC1/C=C/C=C/CC(C)C(O)C(C)(O)C(=O)C(C)C(O)C(C)C(=O)C(C)C(O)C(C)/C=C/C(=O)OC2C(C)C(CC1)OC1(OC(CC(C)O)C(C)CC1=O)C2C (stereo not drawn) (tested in a mixture with another compound) was tested, and the T/C (dose: 1.56 mg/kg/injection, schedule: Q01DX011 (ip), vehicle: carboxymethylcellulose (CMC)) was 54 % of control, the T/C (dose: 3.12 mg/kg/injection, schedule: Q01DX011 (ip), vehicle: carboxymethylcellulose (CMC)) was 64 % of control and the T/C (dose: 6.25 mg/kg/injection, schedule: Q01DX011 (ip), vehicle: carboxymethylcellulose (CMC)) was 46 % of control.
In the case of O=C(Nc1ccc(C2=NCCN2)cc1)c1cc(Cl)cc(C(=O)Nc2ccc(C3=NCCN3)cc2)c1, the T/C [3] is reported as 75 % of control, the T/C [5] is reported as 111 % of control and the T/C [8] is reported as 81 % of control. The T/C (dose: 500.0 mg/kg/injection, schedule: Q01DX011 (ip), vehicle: carboxymethylcellulose (CMC)) was 114 % of control.
For CCC(c1ccc(O)cc1)C(CC)c1ccc(OC)cc1 (stereo not drawn), the T/C (dose: 0.5 mg/kg/injection, schedule: Q01DX011 (sc), vehicle: steriod suspending solution) was 86 % of control, the T/C (dose: 1.0 mg/kg/injection, schedule: Q01DX011 (sc), vehicle: steriod suspending solution) was 73 % of control and the T/C (dose: 3.0 mg/kg/injection, schedule: Q01DX011 (sc), vehicle: steriod suspending solution) was 60 % of control and 72 % of control. For the same compound, the T/C (dose: 6.0 mg/kg/injection, schedule: Q01DX011 (sc), vehicle: steriod suspending solution) was 61 % of control and 73 % of control, the T/C (dose: 12.0 mg/kg/injection, schedule: Q01DX011 (sc), vehicle: steriod suspending solution) was 43 % of control and the T/C (dose: 25.0 mg/kg/injection, schedule: Q01DX011 (sc), vehicle: steriod suspending solution) was 54 % of control and 48 % of control. The T/C (dose: 50.0 mg/kg/injection, schedule: Q01DX011 (sc), vehicle: steriod suspending solution) was 38 % of control, the T/C (dose: 100.0 mg/kg/injection, schedule: Q01DX011 (sc), vehicle: steriod suspending solution) was 43 % of control and the T/C (dose: 200.0 mg/kg/injection, schedule: Q01DX011 (sc), vehicle: steriod suspending solution) was 36 % of control.
With CCC[CH2][Sn]1([CH2]CCC)[O]C(=O)C[S]1 the T/C (dose: 0.62 mg/kg/injection, schedule: Q01DX011 (ip), vehicle: carboxymethylcellulose (CMC)) was 98 % of control and the T/C (dose: 1.25 mg/kg/injection, schedule: Q01DX011 (ip), vehicle: carboxymethylcellulose (CMC)) was 68 % of control.
In the case of CSc1ncnc2c1ncn2C1CCCO1 (stereo not drawn), the T/C (dose: 12.0 mg/kg/injection, schedule: Q01DX011 (ip), vehicle: carboxymethylcellulose (CMC)) is reported as 96 % of control, the T/C [2] is reported as 45 % of control and the T/C [4] is reported as 3 % of control and 9 % of control.
For C=CC1CN2CCC1CC2C(O)c1ccnc2ccc(OC)cc12 (stereo not drawn), the T/C (dose: 27.0 mg/kg/injection, schedule: Q01DX011 (ip), vehicle: carboxymethylcellulose (CMC)) was 104 % of control, the T/C (dose: 27.0 mg/kg/injection, schedule: Q01DX011 (ip), vehicle: other) was 202 % of control and the T/C (dose: 27.5 mg/kg/injection, schedule: Q01DX011 (ip), vehicle: other) was 226 % of control. For the same compound, the T/C (dose: 55.0 mg/kg/injection, schedule: Q01DX011 (ip), vehicle: carboxymethylcellulose (CMC)) was 114 % of control, the T/C (dose: 55.0 mg/kg/injection, schedule: Q01DX011 (ip), vehicle: other) was 263 % of control and the T/C (dose: 110.0 mg/kg/injection, schedule: Q01DX011 (ip), vehicle: other) was 105 % of control and 219 % of control. The T/C (dose: 220.0 mg/kg/injection, schedule: Q01DX011 (ip), vehicle: carboxymethylcellulose (CMC)) was 90 % of control and the T/C (dose: 220.0 mg/kg/injection, schedule: Q01DX011 (ip), vehicle: other) was 204 % of control.
COC(=O)/C=C\C(=O)O (tested in a mixture with another compound) was tested, and the T/C (dose: 14.0 mg/kg/injection, schedule: Q#A X022 (ip), vehicle: carboxymethylcellulose (CMC)) was 88 % of control, the T/C (dose: 28.0 mg/kg/injection, schedule: Q#A X022 (ip), vehicle: carboxymethylcellulose (CMC)) was 92 % of control and the T/C (dose: 31.0 mg/kg/injection, schedule: Q#A X022 (ip), vehicle: carboxymethylcellulose (CMC)) was 68 % of control. For the same compound, the T/C (dose: 56.0 mg/kg/injection, schedule: Q#A X022 (ip), vehicle: carboxymethylcellulose (CMC)) was 49 % of control and the T/C (dose: 62.5 mg/kg/injection, schedule: Q#A X022 (ip), vehicle: carboxymethylcellulose (CMC)) was 36 % of control.
For ClCCn1cnc2c(SCc3ccccc3)ncnc21, the T/C [7] was 85 % of control, the T/C (dose: 37.0 mg/kg/injection, schedule: Q01DX011 (ip), vehicle: carboxymethylcellulose (CMC)) was 35 % of control and the T/C (dose: 75.0 mg/kg/injection, schedule: Q01DX011 (ip), vehicle: carboxymethylcellulose (CMC)) was 32 % of control. The T/C (dose: 150.0 mg/kg/injection, schedule: Q01DX011 (ip), vehicle: carboxymethylcellulose (CMC)) was 11 % of control and 35 % of control and the T/C (dose: 300.0 mg/kg/injection, schedule: Q01DX011 (ip), vehicle: carboxymethylcellulose (CMC)) was 4 % of control.
CN(C)Nc1ncnc2nc[nH]c12 was tested, and the T/C [6] was 74 % of control, the T/C [1] was 80 % of control and the T/C (dose: 20.0 mg/kg/injection, schedule: Q01DX011 (ip), vehicle: carboxymethylcellulose (CMC)) was 59 % of control and 65 % of control. For the same compound, the T/C (dose: 40.0 mg/kg/injection, schedule: Q01DX011 (ip), vehicle: carboxymethylcellulose (CMC)) was 17 % of control and 35 % of control.
In the case of Oc1cc(CN(CCCl)CCCl)c(O)cc1CN(CCCl)CCCl, the T/C (dose: 0.44 mg/kg/injection, schedule: Q01DX011 (ip), vehicle: carboxymethylcellulose (CMC)) is reported as 63 % of control and the T/C (dose: 0.88 mg/kg/injection, schedule: Q01DX011 (ip), vehicle: carboxymethylcellulose (CMC)) is reported as 86 % of control.
In the case of O=c1[nH]c(=O)n(C2CC(O)C(CO)O2)cc1Br (stereo not drawn), the T/C [5] is reported as 72 % of control and the T/C [8] is reported as 52 % of control.
